Twelve compounds from ChEMBL document CHEMBL3217737, “Discovery of a highly selective FLT3 kinase inhibitor from phenotypic cell viability profiling” (Medchemcomm, 2013) can be followed below.

Data set [1] is described as follows: Cytotoxicity against mouse NIH/3T3 cells assessed as cell viability at 1 uM after 24 hrs by WST1 assay. It counts as cell-based, NIH3T3. The note with it: read-out: Activity. (Tetrazolium dyes change colour on reduction, which living cells bring about.)
The next data set deals with MV4-11. Kind of data set: Cytotoxicity against human MV4-11 cells assessed as cell viability at 1 uM after 24 hrs by WST1 assay. Type of data set: functional. To be noted: MV4-11, 24 h, read-out: Activity.
In a further data set the test system is MDA-MB-231. Briefly: Cytotoxicity against human MDA-MB-231 cells assessed as cell viability at 1 uM after 24 hrs by WST1 assay. It counts as functional. To be noted: MDA-MB-231, 24 h, read-out: Activity.
Data set [2] is described as follows: Cytotoxicity against human U87MG cells assessed as cell viability at 1 uM after 24 hrs by WST1 assay. It counts as functional, U-87MG ATCC. To be noted: U-87 MG, read-out: Activity.
For another data set, the system named is MCF7. Briefly: Cytotoxicity against human MCF7 cells assessed as cell viability at 1 uM after 24 hrs by WST1 assay. To be noted: MCF7, 24 h, read-out: Activity. It counts as functional.
A short description of data set [3]: Cytotoxicity against rat L6 cells assessed as cell viability at 1 uM after 24 hrs by WST1 assay. It counts as cell-based. The note with it: read-out: Activity.

Take `COc1ccc(-c2n[nH]c3ncc(-c4ccccc4NCc4ccccc4)cc23)cc1`: the viability at 24 h, 1 µM in data set [1] is 99%; in data set [3], 102%. For the same compound, the viability at 1 µM turned out to be 97% in the data set with MV4-11, 109% in the data set on MDA-MB-231, 95% in data set [2] and 98% in the data set on MCF7.
Turning to `COc1ccc(-c2n[nH]c3ncc(-c4cc([N+](=O)[O-])ccc4N)cc23)cc1`, the viability at 24 h, 1 µM was 99% in data set [1] and 92% in data set [3]. In addition, the viability at 1 µM with MV4-11 worked out at 92%; in the data set on MDA-MB-231, 114%; in data set [2] it was 97%; with MCF7, 102%.
As for `COc1ccc(-c2n[nH]c3ncc(-c4c(N)cccc4[N+](=O)[O-])cc23)cc1`, the viability at 24 h, 1 µM in data set [1] came out at 102%; in data set [3], 110%. Also, the viability at 1 µM stood at 93% with MV4-11, 123% in the data set on MDA-MB-231, 104% in data set [2] and 97% with MCF7.
In the case of `COc1ccc(-c2n[nH]c3ncc(-c4cccc(F)c4N)cc23)cc1`, the viability at 24 h, 1 µM in data set [1] stood at 108%; in data set [3], 100%. Also, the viability at 1 µM amounted to 82% in the data set with MV4-11, 109% with MDA-MB-231, 94% in data set [2] and 100% in the data set with MCF7.
As to `COc1ccc(-c2n[nH]c3ncc(-c4ccc(F)cc4N)cc23)cc1`, the viability at 24 h, 1 µM in data set [1] and in data set [3] was 104% throughout. The viability at 1 µM in the data set on MV4-11 was determined as 94%; in the data set on MDA-MB-231, 95%; in data set [2] it was 94%; with MCF7, 97%.
On to `COC(=O)c1cccc(N)c1-c1cnc2[nH]nc(-c3ccc(OC)cc3)c2c1`, for which the viability at 24 h, 1 µM in data set [1] turned out to be 101%; in data set [3], 105%. The viability at 1 µM in the data set with MV4-11 was 90%; in the data set with MDA-MB-231, 110%; in data set [2], 102%; in the data set on MCF7 it was 89%.
For `COc1ccc(-c2n[nH]c3ncc(-c4ccccc4NC(=O)NCc4ccccc4)cc23)cc1`, the viability at 24 h, 1 µM in data set [1] came out at 94%; in data set [3] it was 104%. The viability at 1 µM turned out to be 104% in the data set with MV4-11, 101% in the data set on MDA-MB-231, 94% in data set [2] and 99% in the data set with MCF7.
`Cc1n[nH]c2ncc(-c3ccc(Cl)cc3N)cc12`: the figures for the viability at 24 h, 1 µM in data set [1] and in data set [3] were 103% and 102%, respectively. In addition, the viability at 1 µM in the data set with MV4-11 is 91%; in the data set on MDA-MB-231, 107%; in data set [2], 99%; in the data set with MCF7, 102%.
As to `COc1ccc(-c2n[nH]c3ncc(-c4ccccc4N)cc23)cc1`, the viability at 24 h, 1 µM in data set [1] was 94%; in data set [3], 108%. Besides, the viability at 1 µM in the data set on MV4-11 was found to be 89%; in the data set on MDA-MB-231, 101%; in data set [2], 94%; with MCF7, 102%.
As for `CNc1ccccc1-c1cnc2[nH]nc(-c3ccc(OC)cc3)c2c1`, the viability at 24 h, 1 µM in data set [1] turned out to be 106%; in data set [3] it was 109%. Also, the viability at 1 µM in the data set with MV4-11 was 86%; in the data set with MDA-MB-231 it was 114%; in data set [2], 100%; in the data set with MCF7, 101%.
As to `COc1ccc(-c2n[nH]c3ncc(-c4cc(Br)ccc4N)cc23)cc1`, the viability at 24 h, 1 µM turned out to be 108% in data set [1] and 104% in data set [3]. Moreover, the viability at 1 µM is 82% in the data set with MV4-11, 112% with MDA-MB-231, 100% in data set [2] and 88% with MCF7.
Consider `Nc1cc(Cl)ccc1-c1cnc2[nH]nc(-c3ccccc3)c2c1`, for which the viability at 24 h, 1 µM amounted to 111% in data set [1] and 96% in data set [3]. The viability at 1 µM with MV4-11 came to 85%; in the data set with MDA-MB-231 it was 105%; in data set [2], 101%; with MCF7, 103%.
